US11000050B2 (priority 2015, dated 2021)

What was measured:
[1] = tested on: Salmonella enteritidis PT4; design: species or system Ross 308 male broilers; settings: in vivo
[2] = design: species or system Ross 308 male broilers; settings: in vivo
[3] = in vivo

For `COc1cc(CNC(=O)CCCCC#Cc2ccccc2)ccc1O` [phenylcapsaicin], the “Salmonella counts (ranked) vs control group” value [1] was “consistently lower”, the “Salmonella counts vs control chickens on a diet without phenylcapsaicin” value [1] was “numerically had lower” and the “caecal colonization of Salmonella enteritidis PT4” value [1] was “not affected”. For the same molecule, the “differences in ranked numbers of Salmonella counts between control and 20 mg/kg treatment group” value [1] was “highly significant”, the “effective dose (most probable range)” value [1] was “up to 20 mg/kg” and the “next highest Salmonella value in caecal digesta” value [1] was 4.0×10^6 CFU/g. For the same molecule, the “two highest Salmonella values in caecal digesta (considered outliers)” value [1] was 1.2×10^7 CFU/g, the spleen weight [2] was “did not affect” and the “BWG with increasing dose level” value [3] was “tendency towards a lower BWG”. The “body weight (BW) vs 0, 20 or 28 mg/kg” value [3] was “significantly lower”, the “body weight gain (BWG) vs 0, 20 or 28 mg/kg” value [3] was “significantly lower” and the daily feed intake [3] was “no effect”. The “feed conversion ratio vs other Salmonella inoculated treatments” value [3] was “higher”, the feed intake [3] was “did not affect” and the BWG ([3]; 36 mg/kg) was “numerically the lowest”. For the same molecule, the FCR ([3]; 36 mg/kg) was “highest”.
